According to patent publication US8835134B2, “Cycloastragenol monoglucoside, preparation, pharmaceutical composition and application thereof” (Tianjin Institute of Pharmaceutical Research, priority 2007, dated 2014):

Test system: anesthetized open-chest dogs
Assay: Hemodynamics of anesthetized open-chest dogs, intravenous infusion
Type: in vivo, mongrel dogs
Procedure: The animals were anesthetized by intravenous injection of 30 mg/kg sodium pentobarbital, tracheally intubated, and mechanically ventilated with positive air pressure. Left thoracotomy was performed through the fourth intercostal space and the heart was suspended in a pericardial cradle, the aortic root was isolated and a probe of blood flow meter (12 or 14 mm in diameter) was fixed to measure the aortic blood flow as a representation of cardiac output (CO), the circumflex branch of left coronary artery was isolated and a probe of blood flow meter (2 or 2.5 mm in diameter) was fixed to measure the coronary blood flow (CBF). A polyethylene catheter filled with heparin physiological saline was inserted through cardiac apex into the left ventricle to measure the left ventricular pressure (LVP) and left ventricular end-diastolic pressure (LVEDP), Peak positive and peak negative first derivatives of the LVP (+ LVdp/dt and − LVdp/dt) were calculated with the Acknowledge software. The systolic blood pressure (SBP), diastolic blood pressure (DBP) and mean arterial pressure (MAP) were measured by polyethylene catheter via the femoral artery, ECG □ was measured by a AC-601G ECG amplifier. The above-mentioned analog signal was input into a data acquisition workstation (MP100, BIOPAC Systems, USA) to a computer running Acknowledge (version 3.7.1).
After surgery, various indexes before administration were recorded until the indexes were stable, and then intravenous infusion administration was conducted. Thirty dogs were divided into five groups (six dogs in each group), the experiment groups were given 0.15, 0.3, 0.6 mg/kg of ASP-[…] respectively, the normal control group was given 1 ml/kg of solvent, and the positive control group was given 0.3 mg/kg of astragaloside IV. The delivery volumes were 15 ml for each dog was and the delivery velocity was 1 ml/min. The indexes were recorded at 5, 10, 15, 20, 30, 45, 60, 90 and 120 mins after drug administration. At the end of experiment, the hearts were excised and weighted. The myocardial blood flow for per hectogram (CF), coronary resistance (CR), cardiac index (CI), left ventricular work (LVW) and total peripheral resistance (TPR) were calculated according to the following formulae: CF=CBF×[…]/heart weight CR=MAP/CF CI=CO/0.11×(body weight)^2/3 LVW=CO×(MAP−5)×1.052×0.0136 TPR=MAP×79.92/CO
Data are expressed as mean±SD ( x±s), the paired t-test was used to compare the significance between before and after administration, the unpaired t-test was adopted for comparison between groups.

[1] = 0.3 mg/kg iv, 45 min after administration
[2] = 0.3 mg/kg iv, 60 min after administration
[3] = 0.3 mg/kg iv, 90 min after administration
[4] = 0.3 mg/kg iv, 120 min after administration
[5] = 0.3 mg/kg iv, before administration
[6] = 0.6 mg/kg iv, 5 min after administration
[7] = 0.6 mg/kg iv, 10 min after administration
[8] = 0.6 mg/kg iv, 15 min after administration

## CC(C)(O)[C@@H]1CC[C@](C)([C@H]2[C@@H](O)C[C@@]3(C)C4C[C@H](OC5OC(CO)C(O)C(O)C5O)C5C(C)(C)[C@@H](O)CC[C@@]56C[C@@]46CC[C@]23C)O1 (stereo partly drawn) [CMG, Cycloastragenol-6-O-β-D-glucoside]
0.3 mg/kg iv, 30 min after administration
  −dp/dt change vs before administration: (36 ± 97) mmHg/s
[1]
  CF: 51.7 ± 23.5 ml/min/100 g
  CF change vs before administration: (1.6 ± 6.8) ml/min/100 g
  CI: 1.85 ± 0.84 L/min/m^2
  CI change vs before administration: (−0.13 ± 0.13) L/min/m^2
  CO: 1.03 ± 0.39 L/min
  CO change vs before administration: (−0.07 ± 0.07) L/min
  CR: 1.65 ± 0.92 mmHg/ml/min/100 g
  CR change vs before administration: (0.11 ± 0.29) mmHg/ml/min/100 g
  LVEDP: 0.5 ± 2.3 mmHg
  LVEDP change vs before administration: (−1.28 ± 0.75) mmHg
  LVP: 98 ± 22 mmHg
  LVP change vs before administration: (−4.8 ± 5.5) mmHg
  LVW: 1.00 ± 0.48 kg · m
  LVW change vs before administration: (−0.02 ± 0.11) kg · m
  TPR: 6068 ± 2331 dyn · s/cm^5
  TPR change vs before administration: (768 ± 937) dyn · s/cm^5
  dp/dt: 1285 ± 453 mmHg/s
  dp/dt change vs before administration: (24 ± 83) mmHg/s
  −dp/dt: −878 ± 266 mmHg/s
  −dp/dt change vs before administration: (43 ± 117) mmHg/s
[2]
  CF: 51.7 ± 23.9 ml/min/100 g
  CF change vs before administration: (1.6 ± 6.8) ml/min/100 g
  CI: 1.80 ± 0.93 L/min/m^2
  CI change vs before administration: (−0.19 ± 0.42) L/min/m^2
  CO: 1.00 ± 0.45 L/min
  CO change vs before administration: (−0.10 ± 0.25) L/min
  CR: 1.54 ± 0.75 mmHg/ml/min/100 g
  CR change vs before administration: (0.01 ± 0.19) mmHg/ml/min/100 g
  LVEDP: 0.8 ± 2.8 mmHg
  LVEDP change vs before administration: (−0.98 ± 0.88) mmHg
  LVP: 98 ± 22 mmHg
  LVP change vs before administration: (−5.7 ± 6.0) mmHg
  LVW: 0.90 ± 0.43 kg · m
  LVW change vs before administration: (−0.12 ± 0.26) kg · m
  TPR: 6625 ± 4423 dyn · s/cm^5
  TPR change vs before administration: (1326 ± 3485) dyn · s/cm^5
  dp/dt: 1272 ± 479 mmHg/s
  dp/dt change vs before administration: (11 ± 94) mmHg/s
  −dp/dt: −833 ± 236 mmHg/s
  −dp/dt change vs before administration: (88 ± 199) mmHg/s
[3]
  CF: 51.1 ± 19.1 ml/min/100 g
  CF change vs before administration: (1.0 ± 4.7) ml/min/100 g
  CI: 1.74 ± 0.98 L/min/m^2
  CI change vs before administration: (−0.25 ± 0.42) L/min/m^2
  CO: 0.96 ± 0.47 L/min
  CO change vs before administration: (−0.14 ± 0.24) L/min
  CR: 1.51 ± 0.66 mmHg/ml/min/100 g
  CR change vs before administration: (−0.02 ± 0.16) mmHg/ml/min/100 g
  LVEDP: 0.9 ± 2.6 mmHg
  LVEDP change vs before administration: (−0.83 ± 0.72) mmHg
  LVP: 99 ± 20 mmHg
  LVP change vs before administration: (−4.5 ± 7.0) mmHg
  LVW: 0.90 ± 0.53 kg · m
  LVW change vs before administration: (−0.12 ± 0.32) kg · m
  TPR: 7000 ± 4452 dyn · s/cm^5
  TPR change vs before administration: (1701 ± 3472 dyn · s/cm^5
  dp/dt: 1242 ± 437 mmHg/s
  dp/dt change vs before administration: (−19 ± 39) mmHg/s
  −dp/dt: −909 ± 312 mmHg/s
  −dp/dt change vs before administration: (12 ± 172) mmHg/s
[4]
  CF: 50.7 ± 20.1 ml/min/100 g
  CF change vs before administration: (0.5 ± 2.0) ml/min/100 g
  CI: 1.81 ± 1.07 L/min/m^2
  CI change vs before administration: (−0.17 ± 0.52) L/min/m^2
  CO: 1.00 ± 0.52 L/min
  CO change vs before administration: (−0.10 ± 0.30) L/min
  CR: 1.60 ± 0.82 mmHg/ml/min/100 g
  CR change vs before administration: (0.07 ± 0.21) mmHg/ml/min/100 g
  LVEDP: 1.0 ± 2.1 mmHg
  LVEDP change vs before administration: (−0.71 ± 0.45) mmHg
  LVP: 100 ± 23 mmHg
  LVP change vs before administration: (−3.5 ± 10.3) mmHg
  LVW: 0.94 ± 0.54 kg · m
  LVW change vs before administration: (−0.08 ± 0.37) kg · m
  TPR: 7219 ± 5040 dyn · s/cm^5
  TPR change vs before administration: (1920 ± 3990) dyn · s/cm^5
  dp/dt: 1309 ± 433 mmHg/s
  dp/dt change vs before administration: (48 ± 92) mmHg/s
  −dp/dt: −894 ± 278 mmHg/s
  −dp/dt change vs before administration: (27 ± 63) mmHg/s
0.3 mg/kg iv, at 5-10 min after administration
  +LVdp/dtmax maximum increase: 12.0±5.0%
[5]
  CF: 50.2 ± 19.5 ml/min/100 g
  CI: 1.98 ± 0.84 L/min/m^2
  CO: 1.10 ± 0.38 L/min
  CR: 1.53 ± 0.67 mmHg/ml/min/100 g
  LVEDP: 1.7 ± 2.2 mmHg
  LVP: 103 ± 20 mmHg
  LVW: 1.02 ± 0.47 kg · m
  TPR: 5299 ± 1597 dyn · s/cm^5
  dp/dt: 1261 ± 453 mmHg/s
  −dp/dt: −921 ± 311 mmHg/s
0.6 mg/kg iv
  LVEDP maximum decrease: 2.1±0.5 mmHg
[6]
  CF: 51.7 ± 10.5 ml/min/100 g
  CF change vs before administration: (0.5 ± 3.1) ml/min/100 g
  CI: 2.00 ± 0.56 L/min/m^2
  CI change vs before administration: (0.04 ± 0.16) L/min/m^2
  CO: 1.18 ± 0.42 L/min
  CO change vs before administration: (0.03 ± 0.09) L/min
  CR: 1.44 ± 0.39 mmHg/ml/min/100 g
  CR change vs before administration: (0.02 ± 0.08) mmHg/ml/min/100 g
  LVEDP: 1.5 ± 1.6 mmHg
  LVEDP change vs before administration: (−1.17 ± 0.78) mmHg
  LVP: 105 ± 14 mmHg
  LVP change vs before administration: (−1.1 ± 3.5) mmHg
  LVW: 1.11 ± 0.38 kg · m
  LVW change vs before administration: (0.03 ± 0.11) kg · m
  TPR: 5474 ± 2219 dyn · s/cm^5
  TPR change vs before administration: (−32 ± 572) dyn · s/cm^5
  dp/dt: 1186 ± 316 mmHg/s
  dp/dt change vs before administration: (83 ± 55) mmHg/s
  −dp/dt: −850 ± 223 mmHg/s
  −dp/dt change vs before administration: (2 ± 31) mmHg/s
[7]
  CF: 51.2 ± 8.4 ml/min/100 g
  CF change vs before administration: (0.0 ± 2.2) ml/min/100 g
  CI: 2.01 ± 0.39 L/min/m^2
  CI change vs before administration: (0.05 ± 0.20) L/min/m^2
  CO: 1.17 ± 0.33 L/min
  CO change vs before administration: (0.02 ± 0.11) L/min
  CR: 1.44 ± 0.40 mmHg/ml/min/100 g
  CR change vs before administration: (0.03 ± 0.12) mmHg/ml/min/100 g
  LVEDP: 0.9 ± 1.6 mmHg
  LVEDP change vs before administration: (−1.74 ± 0.68) mmHg
  LVP: 105 ± 17 mmHg
  LVP change vs before administration: (−1.3 ± 5.0) mmHg
  LVW: 1.11 ± 0.34 kg · m
  LVW change vs before administration: (0.03 ± 0.15) kg · m
  TPR: 5261 ± 1874 dyn · s/cm^5
  TPR change vs before administration: (−246 ± 497) dyn · s/cm^5
  dp/dt: 1198 ± 278 mmHg/s
  dp/dt change vs before administration: (95 ± 70) mmHg/s
  −dp/dt: −857 ± 238 mmHg/s
  −dp/dt change vs before administration: (−4 ± 46) mmHg/s
[8]
  CF: 51.4 ± 8.3 ml/min/100 g
  CF change vs before administration: (0.2 ± 3.7) ml/min/100 g
  CI: 2.05 ± 0.50 L/min/m^2
  CI change vs before administration: (0.09 ± 0.16) L/min/m^2
  CO: 1.20 ± 0.38 L/min
  CO change vs before administration: (0.05 ± 0.09) L/min
  CR: 1.43 ± 0.35 mmHg/ml/min/100 g
  CR change vs before administration: (0.01 ± 0.07) mmHg/ml/min/100 g
  LVEDP: 1.3 ± 1.6 mmHg
  LVEDP change vs before administration: (−1.38 ± 0.51) mmHg
  LVP: 105 ± 17 mmHg
  LVP change vs before administration: (−0.8 ± 4.1) mmHg
  LVW: 1.14 ± 0.41 kg · m
